Assay results: patent US20210380547A1, “UREA DERIVATIVES FOR TREATING AND/OR PREVENTING CANCER” (CENTRE NATIONAL DE LA RECHERCHE SCIENTIFIQUE, priority 2018, published 2021)
Where two headings read alike, the source gives them in different places.

Columns and labels:
[1] = tested on: HuVEC; test: HuVEC viability/proliferation (XTT), basal and CXCL5/CXCL7-dependent; type: cell-based; details: XTT 48 h; 100 ng/ml CXCL7 or CXCL5, 0.25 or 0.5 μM
Experimental: C: HuVEC were grown in the presence of different concentrations of compound #1 for 48h. Cell viability was measured by XTT assays;
D: HuVEC were incubated with 100 ng/ml CXCL7 or CXCL5, in presence of 0.25 or 0.5 μM compound #1 for 48 h. Cell viability was measured by XTT assays;
(§1) Fifty microliters of sodium 3′-[1-phenylaminocarbonyl)-3,4-tetrazolium]-bis(4-methoxy-6-nitro) benzene sulfonic acid hydrate (XTT) reagent was added to each well. The assay is based on the cleavage of the yellow tetrazolium salt XTT to form an orange formazan dye by metabolically active cells. The absorbance of the formazan product, reflecting cell viability, was measured at 490 nm. Each assay was performed in quadruplicate.

[2] = tested on: A498; test: XTT cell viability assay, A498; type: cell-based, human; details: Homo sapiens, A498; XTT assay (48 h); standard deviation of 10%; read-out: EC50 (μM) Kidney A498
Experimental: as §1
(§2) Compounds #1-#14 have been assayed as potential anti-proliferative agents against a panel of human breast head and neck, and kidney tumor cells and hematological malignancies, selected on the basis of their aggressiveness (e.g. incurable triple-negative breast cancer cells: MDA-MB-231; kidney ccRCC cells: RCC4, A498 and 786-O and 786R; head and neck cancer cells: CAL33, CAL33RR, CAL27, and CAL27RR; acute myeloid cell lines: OCI-AML2, OCI-AML3, MolM13, and MolM14; myelodysplastic cell line: SM1; and chronic myeloid cell line: CML). All these cell lines share as common denominator the expression of CXCR1 and CXCR2. The EC50 values have been measured by a XTT colorimetric assay, and compared to those of SB-225002, used as a reference; the results are listed in Table 1.

[3] = tested on: primary RCC cells (TF and CC); test: XTT cell viability and colony assay, primary RCC cells; type: cell-based; details: Homo sapiens, XTT 48 h, read-out: EC50 proliferation of primary kidney tumor cells
Experimental: (§3) A: Primary RCC cells (TF and CC) and normal renal cells (15S) were treated with compound #1 (1 to 5 μM) for 48 h. Cell viability was measured by XTT assays;
B: Primary RCC cells (TF and CC) were treated with compound #1 (1 or 2.5 μM) and colored with Giemsa blue after 10 days (representative results of an experiment repeated trice);
as §1
(§4) The biological effects of compound #1 on primary RCC tumors cells and normal renal cells harvested from patients suffering from kidney cancer have been explored (FIG. 4).

[4] = tested on: caspase-3 activity; test: Caspase-3 activity assay; type: cell-based, human; details: 2.5 μM, 48 hr, 786-O and 786-R
Experimental: F: Cells were treated with 2.5 and 5 μM compound #1, with 2.5 μM sunitinib for 48 hr. Cells were lysed in caspase buffer and caspase-3 activity was evaluated using 0.2 mM Ac-DEVD-AMC as substrates. Results expressed as arbitrary units (A.U.) and are means±Standard deviation of 3 independent experiments;
Caspase 3 activity was assessed in quadruplicates using z-DEVD-AMC as substrate and fluorescence were assessed.

[5] = tested on: CAL27; test: XTT cell viability assay, CAL27; type: cell-based, human; details: for EC50: XTT assay (48 h), standard deviation of 10%, read-out: EC50 (μM) Head and Neck CAL27
Experimental: A, B: Naive (Cal27, A), and cisplatine-resistant (Cal27R, B) Cal27 cells, were treated with compound #1 or cisplatine (1 to 10 μM) for 48 hr. Cell viability was measured by XTT assays;
C, D: Cal27 (C), cal27R (D), were treated with 2.5 μM compound #1, 2.5 μM cisplatin for 24 h to 96 h. The metabolism of cells was measured by XTT assay.
as §1, §2

[6] = tested on: primary normal kidney cells (15S); test: XTT cell viability, primary normal kidney cells; type: cell-based, human; details: up to 5 μM, XTT 48 h
Experimental: as §3, §1, §4

[7] = tested on: MolM14; test: XTT cell viability assay, MolM14; type: cell-based, human; details: Homo sapiens, MOLM-14; XTT assay (48 h); standard deviation of 10%; read-out: EC50 (μM) AML MolM14
Experimental: as §1, §2

[8] = tested on: 786R; test: XTT cell viability assay, 786R (sunitinib-resistant); type: cell-based, human; details: for EC50: XTT assay (48 h), sunitinib-resistant, standard deviation of 10%, read-out: EC50 (μM) Kidney 786R
Experimental: (§5) A, B: Naive (786-O, A), and sunitinib-resistant (786-R, B) 786-O cells, were treated with compound #1 or sunitinib (1 to 10 μM) for 48 hr. Cell viability was measured by XTT assays;
(§6) D, E: 786-O (D), 786-R (E), were treated with 2.5 μM compound #1 or 2.5 μM sunitinib for 24 h to 96 h. The cells metabolism was measured by XTT assay;
as §1, §2

[9] = tested on: 786-O; test: XTT cell viability assay, 786-O; type: cell-based, human
Experimental: as §5, §6, §1, §2

[10] = tested on: ERK signaling pathway; test: Immunoblotting of p-ERK in CXCL5-stimulated HuVEC; type: cell-based; details: 5 μM pre-treatment 1 h, CXCL5 50 ng/ml 10 min
Experimental: E: HuVEC were pre-treated with 5 μM compound #1 for 1 h then stimulated with 50 ng/ml CXCL5 for 10 min. p-ERK levels were analyzed by immunoblotting. ERK and HSP60 served as loading controls *P<0.05; **P<0.01; ***P<0.001.
Cells were lysed in buffer containing 3% SDS, 10% glycerol and 0.825 mM Na2HPO4. 30 to 50 μg of proteins were separated on 10% SDS-PAGE, transferred onto a PVDF membrane (Immobilon, Millipore, France) and then exposed to the appropriate antibodies. Proteins were visualized with the ECL system using horseradish peroxidase-conjugated anti-rabbit or anti-mouse secondary antibodies.

[11] = tested on: healthy human fibroblasts (FHN); test: FACS analysis of cell death markers (AV, PI), healthy fibroblasts; type: cell-based; details: 5 μM, 48 h
Experimental: FIG. 1: Observation by FACS analyses of early (Annexin AV) and late (Propidium Iodide, PI) apoptosis markers expressed by healthy and malignant cells after treatment with compounds #1 and #2 at 5 μM. CT: negative control.
Apoptosis analysis: After stimulation, cells were washed with ice-cold PBS and were stained with the annexin-V-fluos staining kit (Roche, Meylan, France) according to the manufacturer's procedure. Fluorescence was measured by using the FL2 (AV) and FL3 (propidium iodide, PI) channels of a fluorescence-activated cell sorter apparatus (Calibur cytometer).
To complete these XTT assays, malignant (ccRCC and hematological) and healthy (human fibroblasts FHN) cells have been grown with compounds #1 or #2, and after 48h the expression of cell death markers (AV and PI) has been quantified by FACS analyses (FIG. 1).

O=C(Nc1cccc(Cl)c1)Nc1nc2ccc([N+](=O)[O-])cc2s1 [Compound #1, 1-(3-chlorophenyl)-3-(6-nitrobenzo[d]thiazol-2-yl)urea] was tested, and the “basal and CXCL5/CXCL7-dependent HuVEC proliferation” value [1] was “inhibits basal and CXCL5/CXCL7-dependent HuVEC proliferation”, the EC50 [2] was 2.5 µM and the EC50 [3] was about 2 µM. The caspase-3 activity [4] was “significantly strengthened”, the “time of treatment to total inhibition of proliferation” value ([5]; Cal27 cells, 2.5 μM, XTT 24 h to 96 h) was “approximately 70 hours” and the EC50 ([5]; Homo sapiens, CAL-27, 48 h) was 2 µM. The EC50 [5] was 3 µM, the “effect on primary normal kidney cells (15S)” value [6] was “no effect” and the EC50 [7] was 4 µM. For the same molecule, the “time of treatment to total inhibition of proliferation” value ([8]; 786-R cells, 2.5 μM, XTT 24 h to 96 h) was about 100 h, the EC50 ([8]; Homo sapiens, 48 h) was 2 µM and the EC50 [8] was 2.5 µM. For the same molecule, the “time of treatment to total inhibition of proliferation” value ([9]; 786-O cells, 2.5 μM, XTT 24 h to 96 h) was “approximately 65 hours”, the EC50 ([9]; Homo sapiens, 786-0, XTT assay (48 h), standard deviation of 10%, read-out: EC50 (μM) Kidney 786-O) was 2 µM and the “ERK signaling pathway (p-ERK) in HuVEC” value [10] was “inhibition of the ERK signaling pathway”. The “apoptosis of healthy human fibroblasts (FHN)” value [11] was “no increased apoptosis over the control experiment”.
